# In ChEMBL document CHEMBL3217743, “Reduction of acyl glucuronidation in a series of acidic 11-hydroxysteroid dehydrogenase type 1 (11-HSD1) inhibitors: the discovery of AZD6925” (Medchemcomm, 2012):
# Active and inactive are the calls of the source. The calls are words filed in the database; no cut-off is given here.
# Key:
# [1] = molecular target: T1, 11-beta-hydroxysteroid dehydrogenase type 2 (Homo sapiens, UniProt P80365); assay: Inhibition of recombinant 11beta-HSD2 (unknown origin) assessed as conversion of cortisol to cortisone after 40 mins by fluorescence assay
# T1 sequence (P80365 whole entry): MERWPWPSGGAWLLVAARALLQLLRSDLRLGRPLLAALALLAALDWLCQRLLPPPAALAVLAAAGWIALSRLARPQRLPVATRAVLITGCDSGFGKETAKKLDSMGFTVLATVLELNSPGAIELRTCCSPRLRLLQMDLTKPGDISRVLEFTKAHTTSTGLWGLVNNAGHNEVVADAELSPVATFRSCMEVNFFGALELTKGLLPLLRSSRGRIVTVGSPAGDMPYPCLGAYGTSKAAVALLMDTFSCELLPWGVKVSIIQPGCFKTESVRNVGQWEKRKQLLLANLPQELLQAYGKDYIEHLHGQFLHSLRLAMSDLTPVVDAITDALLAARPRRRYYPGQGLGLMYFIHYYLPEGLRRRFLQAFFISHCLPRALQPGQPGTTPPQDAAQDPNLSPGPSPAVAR
# Salmonella typhimurium = assay: Genotoxicity in Salmonella typhimurium by Ames test; format: toxicity, organism-based; conditions: salmonella enterica subsp. enterica serovar typhimurium
# [2] = Drug excretion in bile duct cannulated rat bile assessed as compound remaining by HPLC analysis; format: ADME, tissue-based; conditions: in vivo
# [3] = molecular target: T2, 17-beta-hydroxysteroid dehydrogenase type 1 (Homo sapiens) (UniProt P14061); assay: Inhibition of recombinant 17beta-HSD1 (unknown origin) assessed as conversion of estrone to estradiol at 10 uM after 20 mins by scintillation counting analysis relative to control
# T2 sequence (whole entry): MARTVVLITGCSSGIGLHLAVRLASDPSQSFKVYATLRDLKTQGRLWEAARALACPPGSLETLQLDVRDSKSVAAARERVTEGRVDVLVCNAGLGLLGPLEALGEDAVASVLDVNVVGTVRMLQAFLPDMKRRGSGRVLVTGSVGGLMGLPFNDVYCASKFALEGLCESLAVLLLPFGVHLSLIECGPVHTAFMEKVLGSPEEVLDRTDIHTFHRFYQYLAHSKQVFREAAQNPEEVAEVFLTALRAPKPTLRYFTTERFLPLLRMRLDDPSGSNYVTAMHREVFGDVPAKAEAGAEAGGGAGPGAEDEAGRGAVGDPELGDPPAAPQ
# [4] = Fraction unbound in rat plasma by equilibrium dialysis technique; format: ADME, cell-free
# [5] = Drug metabolism in rat hepatocytes assessed as compound remaining by LC-MS/MS analysis; format: ADME, cell-based, Hepatocyte
# [6] = Fraction unbound in dog plasma by equilibrium dialysis technique; format: ADME, cell-free, Canis lupus familiaris
# [7] = Plasma clearance in dog at 1 to 3 mg/kg; format: ADME, organism-based, Canis lupus familiaris; design: dose 1-3 mg/kg
# [8] = molecular target: 11-beta-hydroxysteroid dehydrogenase 1 (Rattus norvegicus, UniProt P16232); assay: Inhibition of N-terminal 6-His-tagged rat full length 11beta-HSD1 assessed as conversion of cortisone to cortisol after 25 mins by HTRF assay
# Sequence of 11-beta-hydroxysteroid dehydrogenase 1 (Rattus norvegicus, UniProt P16232) (P16232 whole entry): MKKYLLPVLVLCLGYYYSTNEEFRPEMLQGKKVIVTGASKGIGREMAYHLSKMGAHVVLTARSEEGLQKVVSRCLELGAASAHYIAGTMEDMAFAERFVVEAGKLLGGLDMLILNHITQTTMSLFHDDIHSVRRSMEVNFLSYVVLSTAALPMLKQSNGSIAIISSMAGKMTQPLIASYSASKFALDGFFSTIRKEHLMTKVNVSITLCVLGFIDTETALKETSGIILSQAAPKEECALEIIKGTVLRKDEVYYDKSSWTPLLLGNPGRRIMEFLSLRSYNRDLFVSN
# [9] = molecular target: 11-beta-hydroxysteroid dehydrogenase 1 (Mus musculus, UniProt P50172); assay: Inhibition of N-terminal 6-His-tagged mouse full length 11beta-HSD1 assessed as conversion of cortisone to cortisol after 25 mins by HTRF assay
# Sequence of 11-beta-hydroxysteroid dehydrogenase 1 (Mus musculus, UniProt P50172) (P50172 whole entry): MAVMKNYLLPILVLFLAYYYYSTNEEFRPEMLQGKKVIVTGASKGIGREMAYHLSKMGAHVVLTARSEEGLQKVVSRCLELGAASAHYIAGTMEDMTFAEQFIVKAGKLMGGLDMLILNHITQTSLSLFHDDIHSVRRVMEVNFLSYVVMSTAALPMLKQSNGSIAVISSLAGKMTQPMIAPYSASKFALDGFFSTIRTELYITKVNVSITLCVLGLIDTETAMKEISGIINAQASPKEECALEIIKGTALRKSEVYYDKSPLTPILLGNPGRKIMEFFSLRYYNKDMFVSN
# [10] = Clearance in rat hepatocytes measured per 10^6 cells; format: ADME, cell-based, Hepatocyte; conditions: read-out: CLH
# [11] = Apparent permeability from apical to basolateral side in MDCK cells at 10 uM; format: ADME, cell-based, Canis lupus familiaris; conditions: dog
# [12] = Inhibition of N-terminal 6-His-tagged dog full length 11beta-HSD1 assessed as conversion of cortisone to cortisol after 25 mins by HTRF assay; design: species or system Canis lupus familiaris
# [13] = Plasma clearance in mouse at 1 to 3 mg/kg; format: ADME, organism-based; design: dose 1-3 mg/kg
# CYP1A2 = molecular target: T3, CYP1A2 (Homo sapiens, UniProt P05177); assay: Inhibition of CYP1A2 (unknown origin) at 10 uM relative to control; format: ADME
# T3 sequence (P05177 whole entry): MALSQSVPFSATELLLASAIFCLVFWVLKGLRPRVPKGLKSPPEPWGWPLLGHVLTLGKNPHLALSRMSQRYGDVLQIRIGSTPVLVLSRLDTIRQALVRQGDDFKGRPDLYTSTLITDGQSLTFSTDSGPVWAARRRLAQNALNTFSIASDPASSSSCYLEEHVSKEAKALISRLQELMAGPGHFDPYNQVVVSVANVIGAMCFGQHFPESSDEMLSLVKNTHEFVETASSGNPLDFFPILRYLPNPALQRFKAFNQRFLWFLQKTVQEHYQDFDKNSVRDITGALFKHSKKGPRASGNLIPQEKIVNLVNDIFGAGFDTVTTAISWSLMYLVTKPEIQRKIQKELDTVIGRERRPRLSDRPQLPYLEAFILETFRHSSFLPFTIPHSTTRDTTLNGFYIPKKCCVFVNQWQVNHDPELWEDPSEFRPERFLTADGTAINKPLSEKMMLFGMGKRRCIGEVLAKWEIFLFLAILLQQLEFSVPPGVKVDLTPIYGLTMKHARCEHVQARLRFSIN
# [14] = Half life in mouse at 1 to 3 mg/kg, po; format: ADME, organism-based; design: dose 1-3 mg/kg, route oral; conditions: in vivo
# [15] = molecular target: 11-beta-hydroxysteroid dehydrogenase 1 (Homo sapiens, UniProt P28845); assay: Inhibition of 11beta-HSD1 in human adipocytes assessed as conversion of [3H]-cortisone to [3H]-cortisol by scintillation counting analysis; format: cell-based
# Sequence of 11-beta-hydroxysteroid dehydrogenase 1 (Homo sapiens, UniProt P28845) (P28845 whole entry): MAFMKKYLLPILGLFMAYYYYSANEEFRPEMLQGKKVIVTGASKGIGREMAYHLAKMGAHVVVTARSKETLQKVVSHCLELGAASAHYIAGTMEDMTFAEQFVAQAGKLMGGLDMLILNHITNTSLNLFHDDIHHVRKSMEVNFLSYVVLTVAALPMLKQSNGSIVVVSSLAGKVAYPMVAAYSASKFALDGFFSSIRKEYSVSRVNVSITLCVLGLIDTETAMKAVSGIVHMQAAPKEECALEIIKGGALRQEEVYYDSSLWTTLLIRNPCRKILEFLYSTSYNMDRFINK
# L5178Y = assay: Mutagenicity in mouse L5178Y cells by mouse lymphoma assay; format: toxicity, cell-based
# Mus musculus [16] = assay: Ex vivo inhibition of 11beta-HSD1-mediated conversion of [3H]-cortisone to [3H]-cortisol in C57Bl6J mouse liver at 30 mg/kg, po by scintillation counting analysis; format: functional, organism-based; design: dose 30 mg/kg
# [17] = Fraction unbound in human plasma by equilibrium dialysis technique; format: ADME, cell-free
# Mus musculus [18] = assay: Ex vivo inhibition of 11beta-HSD1-mediated conversion of [3H]-cortisone to [3H]-cortisol in C57Bl6J mouse adipose tissue at 30 mg/kg, po after 1 hr by scintillation counting analysis relative to control; format: functional
# [19] = Aqueous solubility of crystalline form of compound in phosphate buffer at pH 7.4 after 24 hrs by LC-UV analysis; format: physicochemical
# [20] = molecular target: Voltage-gated inwardly rectifying potassium channel KCNH2 (Homo sapiens, UniProt Q12809); assay: Inhibition of human ERG
# Sequence of Voltage-gated inwardly rectifying potassium channel KCNH2 (Q12809 whole entry): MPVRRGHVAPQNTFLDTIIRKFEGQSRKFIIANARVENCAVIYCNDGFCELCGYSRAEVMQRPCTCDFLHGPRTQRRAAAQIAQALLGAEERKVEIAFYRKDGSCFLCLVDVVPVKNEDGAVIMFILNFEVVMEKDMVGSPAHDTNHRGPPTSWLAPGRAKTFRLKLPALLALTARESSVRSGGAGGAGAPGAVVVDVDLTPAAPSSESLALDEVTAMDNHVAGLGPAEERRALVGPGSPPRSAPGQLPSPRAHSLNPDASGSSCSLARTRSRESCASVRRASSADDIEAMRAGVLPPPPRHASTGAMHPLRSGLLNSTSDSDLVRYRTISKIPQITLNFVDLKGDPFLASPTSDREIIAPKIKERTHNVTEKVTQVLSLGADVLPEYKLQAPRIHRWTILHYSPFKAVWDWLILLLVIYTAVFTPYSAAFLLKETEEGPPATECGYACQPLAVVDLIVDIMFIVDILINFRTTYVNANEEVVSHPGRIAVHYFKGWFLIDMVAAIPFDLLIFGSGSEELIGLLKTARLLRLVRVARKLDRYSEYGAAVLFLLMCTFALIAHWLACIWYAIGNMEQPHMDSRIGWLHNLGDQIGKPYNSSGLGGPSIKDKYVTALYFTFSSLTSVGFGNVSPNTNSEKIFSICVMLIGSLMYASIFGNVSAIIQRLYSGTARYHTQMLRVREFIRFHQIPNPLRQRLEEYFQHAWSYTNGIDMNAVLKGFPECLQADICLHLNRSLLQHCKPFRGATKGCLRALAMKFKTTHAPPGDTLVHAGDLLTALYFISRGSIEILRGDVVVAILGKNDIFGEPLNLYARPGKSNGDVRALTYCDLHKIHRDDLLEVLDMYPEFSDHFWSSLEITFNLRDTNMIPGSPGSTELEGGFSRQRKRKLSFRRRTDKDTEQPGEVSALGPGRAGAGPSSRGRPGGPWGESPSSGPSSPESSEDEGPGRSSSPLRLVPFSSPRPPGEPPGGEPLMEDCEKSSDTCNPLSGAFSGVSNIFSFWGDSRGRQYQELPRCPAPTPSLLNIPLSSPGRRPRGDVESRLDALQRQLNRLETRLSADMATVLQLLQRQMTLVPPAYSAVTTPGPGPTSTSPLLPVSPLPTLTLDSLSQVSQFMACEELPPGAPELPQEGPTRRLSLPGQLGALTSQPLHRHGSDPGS
# [21] = Fraction unbound in mouse plasma by equilibrium dialysis technique; format: ADME, cell-free
# CYP3A4 = CYP3A4 (Homo sapiens, UniProt P08684); assay: Inhibition of CYP3A4 (unknown origin) at 10 uM relative to control; format: ADME
# Sequence of CYP3A4 (P08684 whole entry): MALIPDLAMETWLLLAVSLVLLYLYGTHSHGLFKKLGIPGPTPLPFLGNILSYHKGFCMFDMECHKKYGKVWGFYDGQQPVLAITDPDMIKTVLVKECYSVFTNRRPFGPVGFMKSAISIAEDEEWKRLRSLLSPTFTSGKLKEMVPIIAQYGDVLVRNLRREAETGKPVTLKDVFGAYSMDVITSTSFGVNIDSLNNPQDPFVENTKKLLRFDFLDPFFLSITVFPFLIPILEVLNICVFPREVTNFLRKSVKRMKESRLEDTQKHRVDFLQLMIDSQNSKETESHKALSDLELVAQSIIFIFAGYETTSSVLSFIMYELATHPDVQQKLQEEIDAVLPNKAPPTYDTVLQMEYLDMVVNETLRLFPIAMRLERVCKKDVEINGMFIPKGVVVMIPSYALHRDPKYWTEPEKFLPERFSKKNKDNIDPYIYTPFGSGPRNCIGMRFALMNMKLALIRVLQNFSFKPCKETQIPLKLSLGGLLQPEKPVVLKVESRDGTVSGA
# [22] = Clearance in rat; format: ADME, organism-based; conditions: in vivo
# [23] = Volume of distribution at steady state in dog at 1 to 3 mg/kg; format: ADME, organism-based, Canis lupus familiaris; design: dose 1-3 mg/kg; conditions: in vivo, read-out: Vdss
smiles,measurement,setting,value
CSc1nc(N2C[C@@H]3[C@H](C2)[C@H]3C(=O)O)ccc1C(=O)NC12CC3CC(CC(C3)C1)C2,IC50,[1],> 30000 nM
same,Activity,Salmonella typhimurium,Non-toxic
same,Stability,[2],52.8%
same,inhibition,[3],20%
same,fraction unbound,[4],0.017
same,Stability,[5],82%
same,fraction unbound,[6],0.015
same,clearance,[7],1 mL/min/kg
same,IC50,[8],82 nM
same,IC50,[9],310 nM
same,hepatocyte CLint,[10],6 µL/min/1e6 cells
same,Papp A→B at 10 µM,[11],21 ×10⁻⁶ cm/s
same,IC50,[12],120 nM
same,clearance,[13],9 mL/min/kg
same,inhibition at 10 µM,CYP1A2,< 25%
same,half-life,[14],2.5 h
same,IC50,[15],4 nM
same,Activity,L5178Y,Non-toxic
same,inhibition,Mus musculus [16],Active
same,fraction unbound,[17],0.011
same,inhibition in vivo at 30 mg/kg,Mus musculus [18],50%
same,solubility thermodynamic at 24 h,[19],> 3000 µM
same,IC50,[20],> 30000 nM
same,fraction unbound,[21],0.023
same,inhibition at 10 µM,CYP3A4,< 25%
same,clearance,[22],6 mL/min/kg
same,Vd,[23],0.7 L/kg
